According to US4518587A, “Dipeptides of L-5-hydroxytryptophan, processes for their preparation and drugs in which they are present” (S.A. Panmedica, priority 1983, dated 1985):
Like-named read-outs stand apart in the source and are kept apart here. Square brackets hold non-standard residues; d marks the D form. Peptide text beside a SMILES is read from it. Trp(5-OH) = N[C@@H](Cc1c[nH]c2ccc(O)cc12)C(=O)O

System: brain levels of L-5-hydroxytryptophan (L-5-HTP), serotonin (5-HT) and 5-hydroxyindoleacetic acid (5-HIAA)
Assay: Biochemical analysis of brain levels of L-5-HTP, 5-HT and 5-HIAA one hour after a single dose (technique of CURZON and GREEN)
Assay type: in vivo, rats
Conditions: for change in vivo at 10 mg/kg / change in vivo at 25 mg/kg / change in vivo at 50 mg/kg: Rattus norvegicus, 1 h; for change in vivo at 10 mg/kg: read-out: %, relative to the controls, of L-5-HTP at dose of 10 mg/kg
Procedure: Biochemical analysis of the brain levles of L-5-hydroxytryptophan (L-5-HTP), serotonin (5-HT) and its first metabolite, 5-hydroxyindoleacetic acid (5- HIAA), was carried out one hour after the administration of a single dose to adult rats by the technique of CURZON and GREEN. Three doses were studied, i.e. 10, 25 and 50 mg/kg, 10 animals being used per dose. Table I below indicates the percentage increases in 5-HTP, 5-HT and 5-HIAA relative to the levels found in the control animals: […]

[1] = brain level, adult rats, single dose 10 mg/kg, one hour after administration, percentage increase relative to control animals
[2] = brain level, adult rats, single dose 25 mg/kg, one hour after administration, percentage increase relative to control animals, read-out: %, relative to the controls, of 5-HIAA at dose of 25 mg/kg
[3] = brain level, adult rats, single dose 25 mg/kg, one hour after administration, percentage increase relative to control animals, read-out: %, relative to the controls, of L-5-HTP at dose of 25 mg/kg
[4] = brain level, adult rats, single dose 50 mg/kg, one hour after administration, percentage increase relative to control animals, read-out: %, relative to the controls, of 5-HIAA at dose of 50 mg/kg
[5] = brain level, adult rats, single dose 50 mg/kg, one hour after administration, percentage increase relative to control animals, read-out: %, relative to the controls, of 5-HT at dose of 50 mg/kg
[6] = brain level, adult rats, single dose 25 mg/kg, one hour after administration, percentage increase relative to control animals
[7] = brain level, adult rats, single dose 50 mg/kg, one hour after administration, percentage increase relative to control animals
[8] = read-out: %, relative to the controls, of 5-HT at dose of 50 mg/kg
[9] = read-out: %, relative to the controls, of L-5-HTP at dose of 25 mg/kg
[10] = read-out: %, relative to the controls, of L-5-HTP at dose of 50 mg/kg

Molecule | change in vivo at 10 mg/kg [1] [%] | change in vivo at 25 mg/kg [2] [%] | change in vivo at 25 mg/kg [3] [%] | change in vivo at 50 mg/kg [4] [%] | change in vivo at 50 mg/kg [5] [%] | %, relative to the controls, of 5-HIAA at dose of 10 mg/kg [1] [%] | %, relative to the controls, of 5-HT at dose of 10 mg/kg [1] [%] | %, relative to the controls, of 5-HT at dose of 25 mg/kg [6] [%] | other results
N=C(N)NCCC[C@H](NC(=O)[C@@H](N)Cc1c[nH]c2ccc(O)cc12)C(=O)O [Example 18, 5-Hydroxy-L-tryptophyl-L-arginine] (H-[Trp(5-OH)]-Arg-OH) | 100 | 15 | 300 | 15 | 30 | 10 | 12 | 30 | change in vivo at 50 mg/kg (brain level, adult rats, single dose 50 mg/kg, one hour after administration, percentage increase relative to control animals, read-out: %, relative to the controls, of L-5-HTP at dose of 50 mg/kg): 500%
COC(=O)[C@H](Cc1c[nH]c2ccc(O)cc12)NC(=O)[C@H](Cc1c[nH]c2ccc(O)cc12)NC(C)=O [Example 7, METHYL ESTER OF N-ACETYL-5-HYDROXY-L-TRYPTOPHYL-5-HYDROXY-L-TRYPTOPHAN] (Ac-[Trp(5-OH)]-[Trp(5-OH)]-OMe) | – | – | – | – | – | 10 | – | – | %, relative to the controls, of L-5-HTP at dose of 10 mg/kg [1]: 10%; %, relative to the controls, of 5-HIAA at dose of 25 mg/kg [6]: 20%; %, relative to the controls, of 5-HIAA at dose of 50 mg/kg [7]: 20%; %, relative to the controls, of L-5-HTP at dose of 50 mg/kg [7]: 30%
NC(=O)[C@@H](N)Cc1c[nH]c2ccc(O)cc12.O [Example 21, 5-HYDROXY-L-TRYPT[…], HYDRATE] | – | – | – | – | – | – | – | – | change in vivo at 25 mg/kg (read-out: %, relative to the controls, of 5-HIAA at dose of 25 mg/kg): 50%; change in vivo at 50 mg/kg (read-out: %, relative to the controls, of 5-HIAA at dose of 50 mg/kg): 170%; change in vivo at 50 mg/kg [8]: 20%; change in vivo at 10 mg/kg: 125%; change in vivo at 25 mg/kg [9]: 250%; change in vivo at 50 mg/kg [10]: 700%
COC(=O)[C@H](Cc1ccc(O)cc1)NC(=O)[C@H](Cc1c[nH]c2ccc(O)cc12)NC(C)=O [Example 6, Methyl ester of N-acetyl-5-hydroxy-L-tryptophyl-L-tyrosine] (Ac-[Trp(5-OH)]-Tyr-OMe) | – | – | – | – | – | – | – | 5 | %, relative to the controls, of 5-HT at dose of 50 mg/kg [7]: 5%
CC(C)C[C@H](NC(=O)[C@@H](N)Cc1c[nH]c2ccc(O)cc12)C(=O)O [Example 10, 5-HYDROXY-L-TRYPTOPHYL-L-LEUCINE] (H-[Trp(5-OH)]-Leu-OH) | 200 | 100 | 600 | 350 | 45 | 55 | – | 12 | –
5-HYDROXY-L-TRYPTOPHAN-L-VALINE [Example 9] | – | – | – | – | – | 70 | 12 | 40 | %, relative to the controls, of L-5-HTP at dose of 10 mg/kg [1]: 300%; %, relative to the controls, of 5-HIAA at dose of 25 mg/kg [6]: 250%; %, relative to the controls, of L-5-HTP at dose of 25 mg/kg [6]: 900%; %, relative to the controls, of 5-HIAA at dose of 50 mg/kg [7]: 320%; %, relative to the controls, of 5-HT at dose of 50 mg/kg [7]: 45%; %, relative to the controls, of L-5-HTP at dose of 50 mg/kg [7]: 1700%
N[C@@H](Cc1c[nH]c2ccc(O)cc12)C(=O)N[C@@H](CC(=O)O)C(=O)O.O.O.O [Example 2, 5-Hydroxy-L-tryptophyl-L-aspartic acid trihydrate] (H-[Trp(5-OH)]-Asp-OH) | – | – | – | – | – | – | 5 | 5 | change in vivo at 50 mg/kg [8]: 10%; change in vivo at 10 mg/kg: 200%; change in vivo at 25 mg/kg [9]: 600%; change in vivo at 50 mg/kg [10]: 1000%
N[C@@H](Cc1c[nH]c2ccc(O)cc12)C(=O)N[C@@H](CCC(=O)O)C(=O)O [Example 4, 5-Hydroxy-L-tryptophyl-L-glutamic acid] (H-[Trp(5-OH)]-Glu-OH) | 200 | – | 550 | – | 60 | – | 5 | 10 | –
N[C@@H](Cc1c[nH]c2ccc(O)cc12)C(=O)N1CCC[C@H]1C(=O)O [Example 11, 5-HYDROXY-L-TRYPTOPHYL-L-PROLINE] (H-[Trp(5-OH)]-Pro-OH) | 200 | 150 | 700 | 300 | 20 | – | 10 | – | –
